In paper PMC11721617, “Novel isobavachalcone derivatives induce apoptosis and necroptosis in human non-small cell lung cancer H1975 cells” (Journal of Enzyme Inhibition and Medicinal Chemistry, 2023):
Read-outs that look alike come from different tables or passages of the source.

Assays:
[1] = MTT assay, cytotoxic activity on normal hepatocytes; assay type: cell-based, mouse; settings: Aml-12 cells (normal hepatocytes); normal mouse hepatocytes Aml-12 cells, 72 h
Experimental: (§1) Four cell lines (H1975, A549, PC9, and Aml-12) were cultured in RPMI 1640 medium containing 10% foetal bovine serum (FBS) and 1% penicillin/streptomycin in an atmosphere with 5% CO2 and 95% relative humidity at 37 °C.
(§2) Cell viability was examined using the MTT assay. The cells grown in the logarithmic phase were seeded in 96-well plates at a density of 5 × 10^3 per well. The cells were treated with various concentrations (0, 5, 10, 20, 40, and 80 μM) of the compound at different times, respectively. At the end of time point, MTT solution (5 mg/ml) was added to each well and incubated at 37 °C for 4 h. Next, the media was removed, and formazan was dissolved in DMSO. Finally, absorbance was measured with a microplate spectrophotometer at 490 nm (Synergy HT, BioTek, VT, USA).

Aml-12 cells = assay: as above; assay type: cell-based, mouse; settings: Aml-12 cells relative to H1975 cells
Experimental: as §1, §2

PC9 = assay: MTT assay, cytotoxic activity; assay type: cell-based; settings: Homo sapiens, PC-9, PC9 cells, 72 h
Experimental: as §1, §2

H1975 cells [2] = assay: Detection of intracellular ROS (DCFH-DA, flow cytometry); assay type: cell-based, human
Experimental: Cells were seeded in 6-well plates at a density of 3 × 10^5 cells/well and incubated with different concentrations (0, 10, 20, 40, and 80 μM) of compound 16 or pre-treated with NAC (20 μM) incubated for 6 h, the cells were co-incubated with DCFH-DA for 20 min at 37° C in the dark. Finally, the intracellular ROS levels were measured using flow cytometry (Becton-Dickinson, Franklin Lakes, NJ, USA).

A549 = assay: MTT assay, cytotoxic activity; assay type: cell-based, human; settings: A549 cells
Experimental: as §1, §2

H1975 cells [3] = assay: ATP detection; assay type: cell-based, human; settings: H1975, 10, 20, 40, and 80 μM, 6 h
Experimental: Cells were seeded in 6-well plates at a density of 3 × 10^5 cells/well and incubated with different concentrations (0, 10, 20, 40, and 80 μM) of compound 16 for 6 h. Afterwards, the cells were washed three times with PBS, lysed with RIPA buffer, and the lysates were centrifuged at 12 000 rpm for 5 min. The intracellular ATP levels were measured using a luminoskan luminometer (Thermo Scientific, Atlanta, GA, USA), according to the ATP assay kit’s protocol.

[4] = test system: Bax, Bcl-2, Akt, Cyt C, caspase-9, caspase-3, RIP1, RIP3, p-RIP3, MLKL, p-MLKL in H1975 cells; assay: Western blotting of apoptosis- and necroptosis-related proteins; assay type: cell-based, human
Experimental: Cells were seeded in 100 mm dishes at a density of 3 × 10^6 cells/well and treated with different concentrations (0, 10, 20, 40, and 80 μM) of compound 16. After incubated for 24 h, the cells were harvested, and washed three times with PBS solution. Next, the cells were lysed with RIPA lysis buffer for 30 min on ice. Protein quantification was determined using the BCA protein assay kit. Equal amounts of proteins were separated by sodium dodecyl sulfate-polyacrylamide gel electrophoresis (SDS-PAGE) and transferred to PVDF membrane. The membrane was blocked with 5% non-fat milk and incubated with primary antibodies (Bax, Bcl-2, Akt, Cyt C, Caspase-9, Caspase-3, RIP1, RIP3, p-RIP3, MLKL, p-MLKL, and β-actin) for 2 h at room temperature, followed by the secondary antibodies for 2 h at room temperature. Finally, the blots were detected by a chemiluminescent gel imaging system (Bio-Rad, Hercules, CA, USA).

H1975 = assay: MTT assay, cytotoxic activity / cell viability; assay type: cell-based, human; settings: for viability at 40 µM / IC50: Homo sapiens; for IC50: NCI-H1975
Experimental: as §1, §2

H1975 cells [5] = assay: Flow cytometry with Annexin V/PI dual staining; assay type: cell-based, human; settings: 24 h
Experimental: Cells were seeded (3 × 10^5 per well) in 6-well plates and incubated overnight. After adherence, the cells were treated with various concentrations (0, 10, 20, 40, and 80 μM) of compound 16 for 24 h. Furthermore, the cells were harvested, washed three times with PBS, and stained with Annexin V (FITC Annexin V) and propidium iodide (PI) staining solution for 30 min in the dark. The percentage of cell death was measured by flow cytometry (Becton-Dickinson, Franklin Lakes, NJ, USA).

H1975 cells [6] = assay: Colony-formation assay; assay type: cell-based, human; settings: 10 days
Experimental: Cells were seeded at a density of 1.5 × 10^3 cells/well into 6-well plates. When colonies formed, the media was replaced with fresh media at various concentrations of compound 16 (0, 1, 2, and 4 μM) and incubated for 10 days. At the end of the incubation time, the cells were washed three times with PBS, fixed with 4% paraformaldehyde for 15 min, stained with crystal violet solution for 10 min, and photographed.

## COc1cc(C(c2cc(C(=O)C=Cc3ccc(O)cc3)c(O)c(CC=C(C)C)c2O)N2CCOCC2)cc(OC)c1OC (centres unmarked) [Compound 16, (E)-1-(2,4-Dihydroxy-3-(3-methylbut-2-en-1-yl)-5-(morpholino(3,4,5-trimethoxyphe-nyl)methyl)phenyl)-3-(4-hydroxyphenyl)prop-2-en-1-one]
[1]
  IC50 at 72 h: 10.1 ± 0.58 µM
Aml-12 cells
  SI value (selective inhibition): 2.32
PC9
  IC50: 16.1 µM
H1975 cells [2]; H1975, 10 μM, 6 h
  Intracellular ROS level enhancement: 1.86%
H1975 cells [2]; H1975, 20 μM, 6 h
  Intracellular ROS level enhancement: 2.21%
H1975 cells [2]; H1975, 40 μM, 6 h
  Intracellular ROS level enhancement: 3.74%
H1975 cells [2]; H1975, 80 μM, 6 h
  Intracellular ROS level enhancement: 5.82%
H1975 cells [2]; H1975, compound 16 (40 μM) alone, Figure 6(E)
  Intracellular ROS level enhancement: 3.75%
H1975 cells [2]; H1975, compound 16 (40 μM) in combination with NAC (20 μM), Figure 6(E)
  Intracellular ROS level enhancement: 2.02%
A549
  Enhancement of cytotoxic effects compared to IBC: 1.53 fold
A549; Homo sapiens, 72 h, MTT
  IC50: 14.2 µM
H1975 cells [3]
  Cellular ATP levels: gradually decreased
[4]; H1975, 20, 40, and 80 µM
  RIP1 protein levels: down-regulation
[4]; H1975, 24 h
  Bax and Cyt C expression: increasing
  Bcl-2 and Akt protein levels: decreasing
  Caspase-9 and -3: cleaving
  Expression of RIP3, p-RIP3, MLKL, and p-MLKL protein levels: increased
H1975; H1975, compound 16 (40 μM) 24 h, pre-treatment with NAC, p < 0.01, Figure 6(F)
  Effect of NAC on compound 16 induced cell death (cell viability): protective effect
H1975; H1975, compound 16 (40 μM) 24 h, pre-treatment with NSA (20 μM), p < 0.01
  Effect of NSA (MLKL inhibitor) on compound 16 induced necroptosis (cell viability): protective effect
H1975; H1975, compound 16 (40 μM) 24 h with pre-treatment with Nec-1 (20 μM), Figure 4(D)
  Cell viability: 25.33%
H1975; NCI-H1975, 24 h, H1975, compound 16 (40 μM) alone, 24 h, Figure 3(C)
  viability at 40 µM: 12.7%
H1975; NCI-H1975, 24 h, H1975, compound 16 (40 μM) alone, 24 h, Figure 4(D)
  viability at 40 µM: 14.8%
H1975; NCI-H1975, H1975, compound 16 (40 μM) 24 h with pre-treatment with z-VAD-FMK (20 μM), Figure 3(C)
  viability at 40 µM: 35.4%
H1975; H1975 cells, 72 h, MTT, read-out: Cytotoxic activity IC50, H1975
  IC50: 4.35 µM
H1975; read-out: IC50 values against H1975 and A549 cell lines (range over both)
  IC50: 4.35 to 15 µM
H1975 cells [5]; H1975, 10 μM
  Cell death rate (Annexin V/PI): 14.7%
H1975 cells [5]; H1975, 20 μM
  Cell death rate (Annexin V/PI): 22.7%
H1975 cells [5]; H1975, 40 μM
  Cell death rate (Annexin V/PI): 34.3%
H1975 cells [5]; H1975, 80 μM
  Cell death rate (Annexin V/PI): 54.9%
H1975 cells [6]; H1975, 1 μM
  Colony formation rate: 51.34%
H1975 cells [6]; H1975, 2 μM
  Colony formation rate: 27.70%
H1975 cells [6]; H1975, 4 μM
  Colony formation rate: 14.87%
